In patent EP4740950A1, “PROPHYLACTIC OR AMELIORATING AGENT FOR CACHEXIA” (The University of Osaka, priority 2023, dated 2025):

Assays:
myoblasts (C2C12) = assay: in vitro differentiation induction of myoblasts (C2C12) into skeletal muscle cells in medium containing Colon26 culture supernatant (myotube formation); assay type: cell-based, Mouse; conditions: Colon26 cells treated at 25 µM for 24 hours; 50% supernatant in horse serum-supplemented DMEM; C2C12 observed on day 9, phase-contrast microscope
Description: Mouse myoblasts (C2C12, RIKEN cell bank) and mouse colon cancer cells (Colon26, RIKEN cell bank) were used. The culture medium used was DMEM medium (Sigma-Aldrich Japan) or RPMI medium (Sigma-Aldrich Japan) supplemented with 10% fetal bovine serum (Gibco), 100 units/mL penicillin G (Sigma-Aldrich Japan) and 100 µg/mL streptomycin (Sigma-Aldrich Japan).
(§1) Colon26 cells were seeded at a concentration of 5 × 10^4 cells/cm^2 in a culture dish with a diameter of 10 mm, and cultured at 37°C, 5% CO2 to 80% to 90% confluency. The medium was then changed to a medium supplemented with 16:0 lysophosphatidylcholine (hereinafter referred to as LPC), 18:0 LPC, 16:0 phosphatidylcholine (hereinafter referred to as PC), or 18:0 PC (all manufactured by Avanti Polar Lipids) at a final concentration of 25 µM, or a medium not containing LPC or PC. The cells were cultured for another 24 hours. After the cells were washed with PBS, the medium was changed to serum-free RPMI medium, and the cells were cultured for another 48 hours. The medium was collected and centrifuged at 4°C and 3000 rpm for 20 minutes to precipitate the cellular components. The supernatant was sterile-filtered using a 0.22 µm sterile filter (Merck Millipore) and stored at -80°C until use.
C2C12 cells were cultured to 80% to 90% confluency in a 6-well culture plate. The medium was changed to DMEM medium supplemented with horse serum (Gibco, final concentration: 2%) or horse serum-supplemented DMEM medium containing 50% supernatant of one of the five types prepared in the above (2), and the cells were cultured for 9 days to induce differentiation into skeletal muscle cells. On day 9, the morphology of the cells was observed under a phase-contrast microscope.

Mesenchymal OP9 cells = assay: in vitro differentiation induction of mesenchymal cells (OP9) into adipocytes in medium containing Colon26 culture supernatant (Oil Red O staining); assay type: cell-based; conditions: Colon26 cells treated at 25 µM; 10% supernatant in adipocyte differentiation medium; OP9 observed on day 7
Description: as §1
Mesenchymal OP9 cells (RIKEN cell bank) were used. The culture medium used was MEM medium (Sigma-Aldrich Japan) supplemented with 20% fetal bovine serum (Gibco), 100 units/mL penicillin G (Sigma-Aldrich Japan), 100 µg/mL streptomycin (Sigma-Aldrich Japan), and 2 mM L-glutamine.
OP9 cells were seeded at a concentration of 7 × 10^3 cells/cm^2 in a 96-well culture plate and cultured to confluency. […]

IL-6 = IL-6 levels in culture supernatant of colon cancer cells (Colon26) treated with PC or PS (ELISA); assay type: cell-based, mouse; conditions: 16:0 PC or 18:0 PC 25 µM, PS 100 µg/ml, 24 hours; then 48 hours in serum-free RPMI
Description: Colon26 cells were seeded at a concentration of 5 × 10^4 cells/cm^2 in the medium used in Example 1 in a culture dish with a diameter of 10 mm, and cultured at 37°C, 5% CO2 to 80% to 90% confluency. To the culture dish, 16:0 PC or 18:0 PC was added at a final concentration of 25 µM, and PS (Larodan) was added at a final concentration of 100 µg/ml. The cells were cultured for 24 hours. After the cells were washed with PBS, the medium was changed to serum-free RPMI medium (Wako), and the cells were cultured for another 48 hours. The medium was collected and centrifuged at 4°C and 3000 rpm for 20 minutes to precipitate the cellular components. The supernatant was filtered through a 0.22 µm sterile filter to remove precipitates from the supernatant. The […] IL-6 level in the supernatant was measured using LEGEND MAX Mouse IL-6 ELISA Kit (BioLegend).

[1] = tested on: tumor-bearing mice (Colon26); assay: weight of epididymal fat tissue in Colon26 tumor-bearing mice, intravenous PC; assay type: in vivo; conditions: 3 mg/kg via the tail vein every 3 or 4 days; day 36 post-transplantation
Description: (§2) Mice were transplanted with Colon26 cells in the same manner as in Example 3, and one week later, divided into three groups: a non-cancer cell transplantation group (control), a cancer cell transplantation group with administration of a solvent (PBS, n = 20), and a cancer cell transplantation group with administration of PC (PC, n = 20). PC and a solvent (PBS) were administered by the same dosing schedule as that in Example 3. During the dosing period, the general conditions of the mice were observed every day. The survival rate was calculated by counting the number of dead individuals. The surviving mice were euthanized on day 36 post-transplantation of Colon26 cells, and the epididymal fat tissue was harvested to measure the weight (groups of n = 8 each). Total RNA was recovered from less than 100 mg of the epididymal fat tissue, and cDNA was synthesized and subjected to qPCR in the same manner as in Example 3 (groups of n = 2 each). The reagents and devices were the same as those used in Example 3. The primer set shown below was used to detect the Leptin gene, which is known to have the function of maintaining fat tissue. The primer set for amplification of the mouse GAPDH gene was the same as that used in Example 3.

Atrogin-1 gene = assay: quantitative PCR of Atrogin-1 gene in muscle of Colon26 tumor-bearing mice, intravenous PC; assay type: in vivo, mouse; conditions: 3 mg/kg via the tail vein every 3 or 4 days, day 36 post-transplantation
Description: (§3) Male BalB/c mice (SLC) at 8 to 9 weeks old were used. Colon26 cells were cultured to 80% to 90% confluency in the same manner as in Example 1 and suspended in PBS to a concentration of 1 × 10^6 cells/mL. Then, 100 µL of the cell suspension was subcutaneously transplanted into the right upper flank of the mice. Every 3 or 4 days, the body weight of the mice was measured, and the general conditions of the mice were observed. The tumor size [1/2(a × b^2) mm^3] was calculated by measuring the maximum diameter (a) and the minimum diameter (b) of the tumor.
(§4) Hydrogenated PC (HSPC; Avanti Polar Lipids) was dissolved in ethanol to a concentration of 50 mM and stored at -20°C until use.
(§5) We set up three groups of mice: a non-cancer cell transplantation group (control), a cancer cell transplantation group with administration of a solvent (PBS), and a cancer cell transplantation group with administration of PC (PC). […]
(§6) The mice were euthanized on day 36 post-transplantation of Colon26 cells, and the gastrocnemius and tibialis muscles were harvested to measure the weight. Twenty milligrams of each muscle tissue was homogenized using High Power Homogenizer ASG50 (AS ONE Corporation), and the total RNA was recovered using RNeasy Fibrous Mini Kit (Qiagen). cDNA was synthesized from the total RNA using PrimeScript RT reagent Kit (Takara) and subjected to quantitative PCR (qPCR). […]

[2] = tested on: tumor-bearing mice (Colon26); assay: muscle weight in Colon26 tumor-bearing mice, intravenous PC; assay type: in vivo; conditions: 3 mg/kg via the tail vein every 3 or 4 days from one week after transplantation; day 36 post-transplantation
Description: as §3, §4, §5, §6

Leptin gene = assay: quantitative PCR of Leptin gene in epididymal fat tissue of Colon26 tumor-bearing mice, intravenous PC; assay type: in vivo, mouse; conditions: 3 mg/kg via the tail vein every 3 or 4 days, day 36 post-transplantation
Description: as §2
Primer set for amplification of mouse Leptin gene: • sense 5'-[…]-3' (SEQ ID NO: 7), and • anti-sense 5'-GCCATCCAGGCTCTCTGG-3' (SEQ ID NO: 8).

MuRF-1 gene = assay: quantitative PCR of MuRF-1 gene in muscle of Colon26 tumor-bearing mice, intravenous PC; assay type: in vivo, mouse; conditions: 3 mg/kg via the tail vein every 3 or 4 days, day 36 post-transplantation
Description: as §3, §4, §5, §6

[3] = tested on: tumor-bearing mice (Colon26); assay: survival rate of Colon26 tumor-bearing mice, intravenous PC; assay type: in vivo; conditions: 3 mg/kg via the tail vein every 3 or 4 days; compared with solvent (PBS) group
Description: as §2

CCCCCCCCCCCCCCCC(=O)OCC(O)COP(=O)([O-])OCC[N+](C)(C)C (stereo not drawn) [16:0 LPC, 16:0 lysophosphatidylcholine]
myotube formation (myoblasts (C2C12)): myotube formation was observed | adipocyte differentiation (Oil Red O) (Mesenchymal OP9 cells): inhibition of adipocyte differentiation was prevented

CCCCCCCCCCCCCCCC(=O)OCC(COP(=O)([O-])OCC[N+](C)(C)C)OC(=O)CCCCCCCCCCCCCCC (stereo not drawn) [16:0 PC, 16:0 phosphatidylcholine]
myotube formation (myoblasts (C2C12)): myotube formation was observed | IL-6 levels in the culture supernatant of Colon26 cells (IL-6): direct inhibitory effect on the expression of IL-6 in cancer cells

CCCCCCCCCCCCCCCCCC(=O)OCC(O)COP(=O)([O-])OCC[N+](C)(C)C (stereo not drawn) [18:0 LPC]
myotube formation (myoblasts (C2C12)): myotube formation was observed

CCCCCCCCCCCCCCCCCC(=O)OCC(COP(=O)([O-])OCC[N+](C)(C)C)OC(=O)CCCCCCCCCCCCCCCCC (stereo not drawn) [18:0 PC]
myotube formation (myoblasts (C2C12)): myotube formation was observed | IL-6 levels in the culture supernatant of Colon26 cells (IL-6): direct inhibitory effect on the expression of IL-6 in cancer cells

Hydrogenated PC
weight of the epididymal fat tissue [1]: weight loss in the fat tissue was not observed | expression of the Atrogin-1 gene (Atrogin-1 gene): comparable to that in normal mice | weight of the gastrocnemius muscle (Gastrocnemius) [2]: muscle weight loss was not observed | weight of the tibialis muscle (Tibialis) [2]: muscle weight loss was not observed | expression of the Leptin gene (Leptin gene): comparable to that in normal mice | expression of the MuRF-1 gene (MuRF-1 gene): comparable to that in normal mice | survival rate [3]: improved

phosphatidylserine [PS]
IL-6 levels in the culture supernatant of Colon26 cells (IL-6): direct inhibitory effect on the expression of IL-6 in cancer cells
